Publication PMC4847944 (Bioorganic & medicinal chemistry, 2014)
Read-outs that look alike come from different tables or passages of the source. Marks after values point to notes of the source that are not given here. Blank lines part the entries; values can stand above or below the compound they belong to.

Legend:
MDA-kb2 cell line [1] = test: Cytotoxicity in MDA-kb2 cells
MDA-kb2 cell line [2] = system: MDA-kb2 cell line
[3] = Solubility in phosphate buffer and cell culture media; type: physicochemical; conditions: highest concentration tested per footnote f

SMILES: CO[C@H]1[C@H](OC(=O)c2ccc(C)[nH]2)[C@H](O)[C@@H](Oc2ccc3c(O)c(NC(=O)c4c[nH]c(C(=O)Nc5c(O)c6ccc(O[C@H]7OC(C)(C)[C@@H](OC)[C@H](OC(=O)c8ccc(C)[nH]8)[C@@H]7O)c(C)c6oc5=O)c4C)c(=O)oc3c2C)OC1(C)C [Coumermycin A1, coumermycin A1]
MDA-kb2 cell culture LC50 (MDA-kb2 cell line [1]; concentration at which cell viability was reduced by 50%, Promega Cell Titer Glo kit): 19.1 ± 9.1 µM | Cytotoxicity in MDA-kb2 cells (result in words) (MDA-kb2 cell line [1]; same conditions as the reporter assay): some accompanying toxicity

Solubility limit in cell culture media [3]: >2^f μM
SMILES: COC1=C2C[C@@H](C)C[C@H](OC)[C@H](O)[C@@H](C)/C=C(\C)[C@H](OC(N)=O)[C@@H](OC)/C=C\C=C(/C)C(=O)NC(=CC1=O)C2=O [Geldanamycin, geldanamycin]
MDA-kb2 cell culture LC50 (MDA-kb2 cell line [2]): >2^f μM

SMILES: CO[C@@H]1[C@@H](OC(N)=O)[C@@H](O)[C@H](Oc2ccc3c(O)c(NC(=O)c4ccc(O)c(CC=C(C)C)c4)c(=O)oc3c2C)OC1(C)C [Novobiocin, novobiocin]
Cytotoxicity in MDA-kb2 cells (result in words) (MDA-kb2 cell line [2]): some accompanying toxicity | MDA-kb2 cell culture LC50 (MDA-kb2 cell line [2]): 690 ± 188 µM
